As usually defined, the inhibition is the change of the read-out against control, counted positive when it falls. A lower inhibition goes with a weak effect. By IC50 is commonly meant the concentration that inhibits the measured activity by half. One may read the pIC50 as −log10 of the IC50, conventionally taken in molar units.

The target of data set [1] is T1, CYP1A2 (Homo sapiens, UniProt P05177).
T1 sequence (P05177 whole entry): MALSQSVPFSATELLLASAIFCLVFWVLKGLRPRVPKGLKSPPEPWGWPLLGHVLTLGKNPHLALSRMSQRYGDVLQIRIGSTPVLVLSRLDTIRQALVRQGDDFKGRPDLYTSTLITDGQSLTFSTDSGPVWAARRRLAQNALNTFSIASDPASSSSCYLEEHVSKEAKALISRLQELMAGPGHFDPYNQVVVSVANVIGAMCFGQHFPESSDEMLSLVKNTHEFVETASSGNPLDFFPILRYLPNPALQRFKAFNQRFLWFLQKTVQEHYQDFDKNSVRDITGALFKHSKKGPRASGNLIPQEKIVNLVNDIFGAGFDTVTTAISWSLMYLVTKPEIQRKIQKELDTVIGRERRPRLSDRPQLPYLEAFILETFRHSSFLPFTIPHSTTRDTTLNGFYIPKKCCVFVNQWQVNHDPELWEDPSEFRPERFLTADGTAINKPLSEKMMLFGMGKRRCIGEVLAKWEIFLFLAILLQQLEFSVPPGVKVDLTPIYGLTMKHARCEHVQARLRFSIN
In words: Inhibition of CYP1A2 (unknown origin) at 10 uM relative to control. Type of data set: ADME.

Data set [2] concerns the target T2, Ephrin type-A receptor 3 (Homo sapiens, UniProt P29320).
T2 sequence (P29320 whole entry): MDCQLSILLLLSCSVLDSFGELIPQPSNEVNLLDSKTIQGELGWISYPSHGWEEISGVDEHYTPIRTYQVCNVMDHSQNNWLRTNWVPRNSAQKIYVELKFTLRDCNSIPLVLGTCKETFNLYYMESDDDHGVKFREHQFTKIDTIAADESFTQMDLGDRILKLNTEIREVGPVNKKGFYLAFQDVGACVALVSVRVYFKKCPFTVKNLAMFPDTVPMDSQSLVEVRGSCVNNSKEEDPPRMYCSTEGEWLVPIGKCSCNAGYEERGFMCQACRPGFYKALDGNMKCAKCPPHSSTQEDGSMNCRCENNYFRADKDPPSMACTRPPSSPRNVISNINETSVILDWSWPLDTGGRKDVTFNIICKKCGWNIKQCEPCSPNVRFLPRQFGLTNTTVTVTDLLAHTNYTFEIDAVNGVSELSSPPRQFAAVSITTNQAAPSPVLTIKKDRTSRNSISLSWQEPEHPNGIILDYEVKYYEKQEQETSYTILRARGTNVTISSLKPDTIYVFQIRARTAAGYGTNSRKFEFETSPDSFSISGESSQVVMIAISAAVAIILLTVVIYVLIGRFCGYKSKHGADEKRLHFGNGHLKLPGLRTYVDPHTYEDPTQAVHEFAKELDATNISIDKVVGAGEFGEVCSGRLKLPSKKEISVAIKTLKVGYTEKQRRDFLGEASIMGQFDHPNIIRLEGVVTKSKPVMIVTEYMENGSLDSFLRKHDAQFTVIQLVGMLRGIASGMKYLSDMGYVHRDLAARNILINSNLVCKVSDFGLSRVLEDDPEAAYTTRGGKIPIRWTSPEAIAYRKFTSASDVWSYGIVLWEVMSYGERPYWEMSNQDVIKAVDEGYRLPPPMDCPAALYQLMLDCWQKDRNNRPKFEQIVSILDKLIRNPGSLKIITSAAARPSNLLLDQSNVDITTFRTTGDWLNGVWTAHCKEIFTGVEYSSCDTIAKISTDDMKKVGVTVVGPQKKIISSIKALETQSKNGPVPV
The data set can be described thus: Inhibition of recombinant human His-tagged EPHA3 cytoplasmic domain (569 to 976 residues) expressed in baculovirus expression system.

For data set [3], the target named is Receptor tyrosine-protein kinase erbB-4 (Homo sapiens, UniProt Q15303). In words: Inhibition of recombinant human N-terminal GST-tagged ERBB4 cytoplasmic domain (708 to 993 residues) expressed in baculovirus expression system.
Sequence of Receptor tyrosine-protein kinase erbB-4 (Q15303 whole entry, the tested form may be a part): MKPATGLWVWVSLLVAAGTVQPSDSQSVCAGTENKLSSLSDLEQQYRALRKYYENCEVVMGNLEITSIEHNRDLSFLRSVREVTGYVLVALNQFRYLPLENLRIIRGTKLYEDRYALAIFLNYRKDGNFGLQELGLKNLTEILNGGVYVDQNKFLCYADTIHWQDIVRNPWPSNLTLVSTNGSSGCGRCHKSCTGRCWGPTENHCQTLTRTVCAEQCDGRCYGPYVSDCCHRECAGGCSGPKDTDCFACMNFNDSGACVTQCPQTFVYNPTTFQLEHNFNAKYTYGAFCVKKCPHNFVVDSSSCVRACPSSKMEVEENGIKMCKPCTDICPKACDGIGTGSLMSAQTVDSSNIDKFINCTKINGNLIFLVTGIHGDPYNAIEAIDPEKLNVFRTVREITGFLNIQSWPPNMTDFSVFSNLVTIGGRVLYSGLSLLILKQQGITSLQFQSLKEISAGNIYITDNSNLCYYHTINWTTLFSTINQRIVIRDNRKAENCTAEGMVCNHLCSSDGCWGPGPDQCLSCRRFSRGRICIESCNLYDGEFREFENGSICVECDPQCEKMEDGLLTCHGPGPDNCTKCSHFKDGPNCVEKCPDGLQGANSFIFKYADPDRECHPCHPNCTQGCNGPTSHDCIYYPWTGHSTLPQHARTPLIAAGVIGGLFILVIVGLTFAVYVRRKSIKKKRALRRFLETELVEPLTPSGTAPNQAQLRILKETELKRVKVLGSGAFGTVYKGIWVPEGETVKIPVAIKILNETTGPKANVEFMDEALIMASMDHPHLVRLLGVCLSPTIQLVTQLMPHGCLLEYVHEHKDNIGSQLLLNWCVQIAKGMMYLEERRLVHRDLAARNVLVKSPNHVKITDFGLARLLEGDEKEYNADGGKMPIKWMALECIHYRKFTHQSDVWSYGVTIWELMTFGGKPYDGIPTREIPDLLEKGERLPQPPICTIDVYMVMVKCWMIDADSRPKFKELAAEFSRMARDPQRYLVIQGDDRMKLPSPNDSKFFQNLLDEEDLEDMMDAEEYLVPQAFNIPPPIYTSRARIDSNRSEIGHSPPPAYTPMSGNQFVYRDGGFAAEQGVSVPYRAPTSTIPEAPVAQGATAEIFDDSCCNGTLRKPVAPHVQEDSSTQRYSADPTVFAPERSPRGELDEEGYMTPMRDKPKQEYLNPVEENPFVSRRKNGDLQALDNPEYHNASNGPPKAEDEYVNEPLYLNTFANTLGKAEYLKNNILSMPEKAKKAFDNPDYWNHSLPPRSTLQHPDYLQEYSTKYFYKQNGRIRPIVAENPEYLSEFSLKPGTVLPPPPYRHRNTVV
Data set [4] concerns the target Glycogen synthase kinase-3 beta (Homo sapiens, UniProt P49841). The data set can be described thus: Inhibition of recombinant full length human His-tagged GSK3B expressed in baculovirus expression system.
The target of data set [5] is MAP kinase p38 (Homo sapiens, UniProt O15264+Q15759+Q16539+P53778). In words: Inhibition of MAPK p38 (unknown origin).
The target in data set [6] is Proto-oncogene tyrosine-protein kinase receptor Ret (Homo sapiens, UniProt P07949). The data set can be described thus: Inhibition of recombinant human GST-tagged RET cytoplasmic domain expressed in baculovirus expression system.
Sequence of Proto-oncogene tyrosine-protein kinase receptor Ret (P07949 whole entry, the tested form may be a part): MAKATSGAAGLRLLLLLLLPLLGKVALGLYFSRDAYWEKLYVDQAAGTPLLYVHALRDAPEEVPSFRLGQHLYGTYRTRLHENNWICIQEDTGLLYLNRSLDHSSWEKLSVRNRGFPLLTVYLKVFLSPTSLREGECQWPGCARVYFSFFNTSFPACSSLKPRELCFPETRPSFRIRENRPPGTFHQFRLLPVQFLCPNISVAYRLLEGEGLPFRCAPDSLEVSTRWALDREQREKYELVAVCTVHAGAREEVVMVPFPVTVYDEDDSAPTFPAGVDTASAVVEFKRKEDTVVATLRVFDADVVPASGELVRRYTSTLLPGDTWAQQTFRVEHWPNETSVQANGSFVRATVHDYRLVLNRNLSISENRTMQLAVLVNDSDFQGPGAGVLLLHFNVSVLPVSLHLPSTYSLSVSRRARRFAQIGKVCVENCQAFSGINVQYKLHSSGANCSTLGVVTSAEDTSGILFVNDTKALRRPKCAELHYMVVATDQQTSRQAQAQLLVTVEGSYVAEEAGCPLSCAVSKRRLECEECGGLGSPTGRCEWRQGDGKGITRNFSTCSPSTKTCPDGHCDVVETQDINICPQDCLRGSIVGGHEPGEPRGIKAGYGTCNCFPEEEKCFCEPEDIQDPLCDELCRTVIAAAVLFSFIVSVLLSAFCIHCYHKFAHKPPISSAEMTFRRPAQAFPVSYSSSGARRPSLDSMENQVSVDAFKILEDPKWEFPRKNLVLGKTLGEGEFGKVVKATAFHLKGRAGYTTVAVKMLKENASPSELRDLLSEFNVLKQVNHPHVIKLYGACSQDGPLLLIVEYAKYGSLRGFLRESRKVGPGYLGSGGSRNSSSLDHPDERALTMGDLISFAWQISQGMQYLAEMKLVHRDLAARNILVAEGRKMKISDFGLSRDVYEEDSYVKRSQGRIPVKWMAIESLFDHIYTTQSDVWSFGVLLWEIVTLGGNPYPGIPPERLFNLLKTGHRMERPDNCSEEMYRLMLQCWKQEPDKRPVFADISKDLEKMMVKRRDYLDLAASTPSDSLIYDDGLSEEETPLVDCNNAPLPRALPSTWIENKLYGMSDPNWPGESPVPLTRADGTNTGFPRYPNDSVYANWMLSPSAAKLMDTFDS
The target of data set [7] is Macrophage-stimulating protein receptor (Homo sapiens, UniProt Q04912). The data set can be described thus: Inhibition of recombinant human GST-tagged RON cytoplasmic domain expressed in baculovirus expression system.
Sequence of Macrophage-stimulating protein receptor (Q04912 25-304 limits assumed): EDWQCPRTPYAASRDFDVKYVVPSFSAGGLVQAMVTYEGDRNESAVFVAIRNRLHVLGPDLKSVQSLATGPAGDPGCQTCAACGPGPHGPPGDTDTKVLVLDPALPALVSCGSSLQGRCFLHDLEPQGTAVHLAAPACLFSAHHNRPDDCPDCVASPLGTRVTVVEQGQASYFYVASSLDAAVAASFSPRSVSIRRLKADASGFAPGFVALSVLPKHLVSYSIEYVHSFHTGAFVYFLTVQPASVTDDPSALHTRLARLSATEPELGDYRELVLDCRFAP
Sequence of Macrophage-stimulating protein receptor (Q04912 310-1400 limits assumed): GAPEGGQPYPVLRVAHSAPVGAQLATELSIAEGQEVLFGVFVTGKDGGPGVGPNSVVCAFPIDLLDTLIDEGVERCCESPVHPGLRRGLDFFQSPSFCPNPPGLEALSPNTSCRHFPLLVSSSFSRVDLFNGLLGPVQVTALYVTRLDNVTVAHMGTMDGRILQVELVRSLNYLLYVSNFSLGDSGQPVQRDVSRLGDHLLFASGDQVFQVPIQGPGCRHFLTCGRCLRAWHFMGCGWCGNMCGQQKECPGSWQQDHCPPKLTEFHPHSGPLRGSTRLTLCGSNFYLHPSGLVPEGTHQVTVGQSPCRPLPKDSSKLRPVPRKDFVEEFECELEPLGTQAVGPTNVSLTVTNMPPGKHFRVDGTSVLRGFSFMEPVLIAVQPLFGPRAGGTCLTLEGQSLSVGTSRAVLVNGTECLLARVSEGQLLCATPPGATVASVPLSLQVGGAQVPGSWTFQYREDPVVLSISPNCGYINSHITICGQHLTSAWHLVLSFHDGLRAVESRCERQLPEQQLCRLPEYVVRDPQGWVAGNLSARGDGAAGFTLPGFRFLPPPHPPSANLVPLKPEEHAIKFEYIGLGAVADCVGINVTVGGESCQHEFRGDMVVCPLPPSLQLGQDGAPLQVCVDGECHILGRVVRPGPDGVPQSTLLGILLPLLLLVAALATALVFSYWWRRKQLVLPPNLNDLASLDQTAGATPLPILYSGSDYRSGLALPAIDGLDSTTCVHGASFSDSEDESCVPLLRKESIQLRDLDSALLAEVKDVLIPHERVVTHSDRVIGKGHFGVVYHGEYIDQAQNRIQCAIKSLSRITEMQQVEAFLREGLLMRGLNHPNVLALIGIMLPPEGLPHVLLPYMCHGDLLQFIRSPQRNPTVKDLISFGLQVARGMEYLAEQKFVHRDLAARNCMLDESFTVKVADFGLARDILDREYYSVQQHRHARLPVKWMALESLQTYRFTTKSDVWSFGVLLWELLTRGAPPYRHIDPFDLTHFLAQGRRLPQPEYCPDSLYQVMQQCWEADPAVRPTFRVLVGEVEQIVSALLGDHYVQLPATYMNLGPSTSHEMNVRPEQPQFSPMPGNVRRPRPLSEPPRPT

Sequence of Glycogen synthase kinase-3 beta (P49841 whole entry): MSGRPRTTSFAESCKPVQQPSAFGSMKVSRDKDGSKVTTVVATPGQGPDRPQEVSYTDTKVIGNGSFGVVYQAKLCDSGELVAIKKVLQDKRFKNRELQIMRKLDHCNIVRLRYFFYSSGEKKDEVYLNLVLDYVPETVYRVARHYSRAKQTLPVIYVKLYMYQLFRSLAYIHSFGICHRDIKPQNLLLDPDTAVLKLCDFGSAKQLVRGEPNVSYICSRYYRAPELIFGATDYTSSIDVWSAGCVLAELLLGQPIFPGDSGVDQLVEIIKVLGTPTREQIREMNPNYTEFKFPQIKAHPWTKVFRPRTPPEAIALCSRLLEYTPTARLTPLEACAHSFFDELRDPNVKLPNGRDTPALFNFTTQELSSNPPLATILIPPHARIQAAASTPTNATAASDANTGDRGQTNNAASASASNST

Take `COCCn1cc(NC(=O)c2csc(-c3nncn3C(C)C)n2)cn1`: in data set [1], the inhibition at 10 µM was 8%. Moreover, the IC50 in data set [2] was greater than 20 µM; in data set [3] it was greater than 20 µM; in data set [4], 457 nM; in data set [6], 617 nM; in data set [7], greater than 20 µM. The compound further displayed a pIC50 in data set [5] of less than 4.7.

The values above are taken from ChEMBL document CHEMBL4007491, “Structure-based drug design of novel ASK1 inhibitors using an integrated lead optimization strategy” (Bioorg Med Chem Lett, 2017).
